{
  "source": "ChEMBL document CHEMBL1687748",
  "about": "(Antimicrob Agents Chemother, 2009)",
  "type_in_all_cases": "functional",
  "key": {"Bacillus anthracis [1]": {"test_system": "Bacillus anthracis", "assay": "Growth rate constant for compound-sensitive toxin and capsule gene-deficient Bacillus anthracis Sterne in hollow-fiber pharmacodynamic infection model at 250 mg administered as continuous infusion by Bayesian method"}, "Bacillus anthracis [2]": {"test_system": "Bacillus anthracis", "assay": "Total spore counts of toxin and capsule gene-deficient Bacillus anthracis Sterne in hollow-fiber pharmacodynamic infection model administered for every 24 hrs"}, "Bacillus anthracis [3]": {"test_system": "Bacillus anthracis", "assay": "Antimicrobial activity against toxin and capsule gene-deficient Bacillus anthracis Sterne after 24 hrs by macrobroth dilution method"}, "Bacillus anthracis [4]": {"test_system": "Bacillus anthracis", "assay": "Total sensitive organism counts of toxin and capsule gene-deficient Bacillus anthracis Sterne in hollow-fiber pharmacodynamic infection model at 200 mg, qd by Bayesian method"}, "Bacillus anthracis [5]": {"test_system": "Bacillus anthracis", "assay": "Growth rate constant for compound-sensitive toxin and capsule gene-deficient Bacillus anthracis Sterne in hollow-fiber pharmacodynamic infection model administered for every 24 hrs"}, "Bacillus anthracis [6]": {"test_system": "Bacillus anthracis", "assay": "Kill rate constant for compound-sensitive toxin and capsule gene-deficient Bacillus anthracis Sterne in hollow-fiber pharmacodynamic infection model at 200 mg administered as continuous infusion by Bayesian method"}, "Bacillus anthracis [7]": {"test_system": "Bacillus anthracis", "assay": "Growth rate constant of spore-phase cells going to vegetative phase in toxin and capsule gene-deficient Bacillus anthracis Sterne in hollow-fiber pharmacodynamic infection model at 100 mg, qd by Bayesian method"}, "Bacillus anthracis [8]": {"test_system": "Bacillus anthracis", "assay": "Total sensitive organism counts of toxin and capsule gene-deficient Bacillus anthracis Sterne in hollow-fiber pharmacodynamic infection model at 150 mg, qd by Bayesian method"}, "Bacillus anthracis [9]": {"test_system": "Bacillus anthracis", "assay": "Kill rate constant for compound-sensitive toxin and capsule gene-deficient Bacillus anthracis Sterne in hollow-fiber pharmacodynamic infection model at 150 mg administered as continuous infusion by Bayesian method"}, "Bacillus anthracis [10]": {"test_system": "Bacillus anthracis", "assay": "Total spore counts of toxin and capsule gene-deficient Bacillus anthracis Sterne in hollow-fiber pharmacodynamic infection model at 100 mg, qd by Bayesian method"}, "Bacillus anthracis [11]": {"test_system": "Bacillus anthracis", "assay": "Total spore counts of toxin and capsule gene-deficient Bacillus anthracis Sterne in hollow-fiber pharmacodynamic infection model at 250 mg, qd by Bayesian method"}, "Bacillus anthracis [12]": {"test_system": "Bacillus anthracis", "assay": "Growth rate constant of spore-phase cells going to vegetative phase in toxin and capsule gene-deficient Bacillus anthracis Sterne in hollow-fiber pharmacodynamic infection model at 250 mg administered as continuous infusion by Bayesian method"}, "Bacillus anthracis [13]": {"test_system": "Bacillus anthracis", "assay": "Growth rate constant for compound-sensitive toxin and capsule gene-deficient Bacillus anthracis Sterne in hollow-fiber pharmacodynamic infection model at 100 mg administered as continuous infusion by Bayesian method"}, "Bacillus anthracis [14]": {"test_system": "Bacillus anthracis", "assay": "Growth rate constant of vegetative-phase cells going to spore phase in toxin and capsule gene-deficient Bacillus anthracis Sterne in hollow-fiber pharmacodynamic infection model at 100 mg administered as continuous infusion by Bayesian method"}, "Bacillus anthracis [15]": {"test_system": "Bacillus anthracis", "assay": "Kill rate constant for compound-sensitive toxin and capsule gene-deficient Bacillus anthracis Sterne in hollow-fiber pharmacodynamic infection model at 50 mg, qd by Bayesian method"}, "Bacillus anthracis [16]": {"test_system": "Bacillus anthracis", "assay": "Growth rate constant for compound-sensitive toxin and capsule gene-deficient Bacillus anthracis Sterne in hollow-fiber pharmacodynamic infection model at 200 mg administered as continuous infusion by Bayesian method"}, "Bacillus anthracis [17]": {"test_system": "Bacillus anthracis", "assay": "Growth rate constant of vegetative-phase cells going to spore phase in toxin and capsule gene-deficient Bacillus anthracis Sterne in hollow-fiber pharmacodynamic infection model at 150 mg administered as continuous infusion by Bayesian method"}, "Bacillus anthracis [18]": {"test_system": "Bacillus anthracis", "assay": "Total sensitive organism counts of toxin and capsule gene-deficient Bacillus anthracis Sterne in hollow-fiber pharmacodynamic infection model administered for every 24 hrs"}, "Bacillus anthracis [19]": {"test_system": "Bacillus anthracis", "assay": "Total sensitive organism counts of toxin and capsule gene-deficient Bacillus anthracis Sterne in hollow-fiber pharmacodynamic infection model administered as continuous infusion"}, "Bacillus anthracis [20]": {"test_system": "Bacillus anthracis", "assay": "Growth rate constant for compound-sensitive toxin and capsule gene-deficient Bacillus anthracis Sterne in hollow-fiber pharmacodynamic infection model at 150 mg, qd by Bayesian method"}, "Bacillus anthracis [21]": {"test_system": "Bacillus anthracis", "assay": "Growth rate constant of spore-phase cells going to vegetative phase in toxin and capsule gene-deficient Bacillus anthracis Sterne in hollow-fiber pharmacodynamic infection model at 150 mg administered as continuous infusion by Bayesian method"}, "Bacillus anthracis [22]": {"test_system": "Bacillus anthracis", "assay": "Kill rate constant for compound-sensitive toxin and capsule gene-deficient Bacillus anthracis Sterne in hollow-fiber pharmacodynamic infection model administered for every 24 hrs"}, "Bacillus anthracis [23]": {"test_system": "Bacillus anthracis", "assay": "Growth rate constant for compound-sensitive toxin and capsule gene-deficient Bacillus anthracis Sterne in hollow-fiber pharmacodynamic infection model at 100 mg, qd by Bayesian method"}, "Bacillus anthracis [24]": {"test_system": "Bacillus anthracis", "assay": "Growth rate constant of vegetative-phase cells going to spore phase in toxin and capsule gene-deficient Bacillus anthracis Sterne in hollow-fiber pharmacodynamic infection model at 50 mg, qd by Bayesian method"}, "Bacillus anthracis [25]": {"test_system": "Bacillus anthracis", "assay": "Antimicrobial activity against toxin and capsule gene-deficient Bacillus anthracis Sterne after 24 hrs by […] method"}, "Bacillus anthracis [26]": {"test_system": "Bacillus anthracis", "assay": "Kill rate constant for compound-sensitive toxin and capsule gene-deficient Bacillus anthracis Sterne in hollow-fiber pharmacodynamic infection model at 100 mg administered as continuous infusion by Bayesian method"}, "Bacillus anthracis [27]": {"test_system": "Bacillus anthracis", "assay": "Total spore counts of toxin and capsule gene-deficient Bacillus anthracis Sterne in hollow-fiber pharmacodynamic infection model at 200 mg administered as continuous infusion by Bayesian method"}, "Bacillus anthracis [28]": {"test_system": "Bacillus anthracis", "assay": "Growth rate constant of spore-phase cells going to vegetative phase in toxin and capsule gene-deficient Bacillus anthracis Sterne in hollow-fiber pharmacodynamic infection model administered for every 24 hrs"}, "Bacillus anthracis [29]": {"test_system": "Bacillus anthracis", "assay": "Hill constant for compound-sensitive toxin and capsule gene-deficient Bacillus anthracis Sterne in hollow-fiber pharmacodynamic infection model at 150 mg, qd by Bayesian method"}, "Bacillus anthracis [30]": {"test_system": "Bacillus anthracis", "assay": "Hill constant for compound-sensitive toxin and capsule gene-deficient Bacillus anthracis Sterne in hollow-fiber pharmacodynamic infection model administered as continuous infusion"}, "Bacillus anthracis [31]": {"test_system": "Bacillus anthracis", "assay": "Hill constant for compound-sensitive toxin and capsule gene-deficient Bacillus anthracis Sterne in hollow-fiber pharmacodynamic infection model at 150 mg administered as continuous infusion by Bayesian method"}, "Bacillus anthracis [32]": {"test_system": "Bacillus anthracis", "assay": "Growth rate constant of spore-phase cells going to vegetative phase in toxin and capsule gene-deficient Bacillus anthracis Sterne in hollow-fiber pharmacodynamic infection model at 200 mg, qd by Bayesian method"}, "Bacillus anthracis [33]": {"test_system": "Bacillus anthracis", "assay": "Growth rate constant of spore-phase cells going to vegetative phase in toxin and capsule gene-deficient Bacillus anthracis Sterne in hollow-fiber pharmacodynamic infection model at 100 mg administered as continuous infusion by Bayesian method"}, "Bacillus anthracis [34]": {"test_system": "Bacillus anthracis", "assay": "Growth rate constant of vegetative-phase cells going to spore phase in toxin and capsule gene-deficient Bacillus anthracis Sterne in hollow-fiber pharmacodynamic infection model administered as continuous infusion"}, "Bacillus anthracis [35]": {"test_system": "Bacillus anthracis", "assay": "Growth rate constant of spore-phase cells going to vegetative phase in toxin and capsule gene-deficient Bacillus anthracis Sterne in hollow-fiber pharmacodynamic infection model at 200 mg administered as continuous infusion by Bayesian method"}, "Bacillus anthracis [36]": {"test_system": "Bacillus anthracis", "assay": "Total spore counts of toxin and capsule gene-deficient Bacillus anthracis Sterne in hollow-fiber pharmacodynamic infection model at 150 mg, qd by Bayesian method"}, "Bacillus anthracis [37]": {"test_system": "Bacillus anthracis", "assay": "Growth rate constant of vegetative-phase cells going to spore phase in toxin and capsule gene-deficient Bacillus anthracis Sterne in hollow-fiber pharmacodynamic infection model at 200 mg administered as continuous infusion by Bayesian method"}},
  "data": [
    {"smiles": "COc1c(N2C[C@@H]3CCCN[C@@H]3C2)c(F)cc2c(=O)c(C(=O)O)cn(C3CC3)c12", "note": "[MOXIFLOXACIN]", "values": [
      {"measurement": "Activity", "setting": "Bacillus anthracis [1]", "result": 8.25, "unit": "h⁻¹"},
      {"measurement": "CFU/ml", "setting": "Bacillus anthracis [2]", "result": 1740000},
      {"measurement": "MIC", "setting": "Bacillus anthracis [3]", "result": 0.06, "unit": "µg/mL"},
      {"measurement": "CFU/ml", "setting": "Bacillus anthracis [4]", "result": 53600000},
      {"measurement": "Activity", "setting": "Bacillus anthracis [5]", "result": 8.24, "unit": "h⁻¹"},
      {"measurement": "Activity", "setting": "Bacillus anthracis [6]", "result": 8.28, "unit": "h⁻¹"},
      {"measurement": "Activity", "setting": "Bacillus anthracis [7]", "result": 25.9, "unit": "h⁻¹"},
      {"measurement": "CFU/ml", "setting": "Bacillus anthracis [8]", "result": 21500000},
      {"measurement": "Activity", "setting": "Bacillus anthracis [9]", "result": 8.28, "unit": "h⁻¹"},
      {"measurement": "CFU/ml", "setting": "Bacillus anthracis [10]", "result": 1900000},
      {"measurement": "CFU/ml", "setting": "Bacillus anthracis [11]", "result": 2360000},
      {"measurement": "Activity", "setting": "Bacillus anthracis [12]", "result": 7.23, "unit": "h⁻¹"},
      {"measurement": "Activity", "setting": "Bacillus anthracis [13]", "result": 8.26, "unit": "h⁻¹"},
      {"measurement": "Activity", "setting": "Bacillus anthracis [14]", "result": 1.17, "unit": "h⁻¹"},
      {"measurement": "Activity", "setting": "Bacillus anthracis [15]", "result": 6.24, "unit": "h⁻¹"},
      {"measurement": "Activity", "setting": "Bacillus anthracis [16]", "result": 8.25, "unit": "h⁻¹"},
      {"measurement": "Activity", "setting": "Bacillus anthracis [17]", "result": 4.94, "unit": "h⁻¹"},
      {"measurement": "CFU/ml", "setting": "Bacillus anthracis [18]", "result": 41200000},
      {"measurement": "CFU/ml", "setting": "Bacillus anthracis [19]", "result": 38500000},
      {"measurement": "Activity", "setting": "Bacillus anthracis [20]", "result": 7.42, "unit": "h⁻¹"},
      {"measurement": "Activity", "setting": "Bacillus anthracis [21]", "result": 9.06, "unit": "h⁻¹"},
      {"measurement": "Activity", "setting": "Bacillus anthracis [22]", "result": 8.24, "unit": "h⁻¹"},
      {"measurement": "Activity", "setting": "Bacillus anthracis [23]", "result": 6.57, "unit": "h⁻¹"},
      {"measurement": "Activity", "setting": "Bacillus anthracis [24]", "result": 0.0657, "unit": "h⁻¹"},
      {"measurement": "MBC", "setting": "Bacillus anthracis [25]", "result": 1, "unit": "µg/mL"},
      {"measurement": "Activity", "setting": "Bacillus anthracis [26]", "result": 8.28, "unit": "h⁻¹"},
      {"measurement": "CFU/ml", "setting": "Bacillus anthracis [27]", "result": 1870000},
      {"measurement": "Activity", "setting": "Bacillus anthracis [28]", "result": 7.31, "unit": "h⁻¹"},
      {"measurement": "Activity", "setting": "Bacillus anthracis [29]", "result": 30, "unit": "h⁻¹"},
      {"measurement": "Activity", "setting": "Bacillus anthracis [30]", "result": 5.93, "unit": "h⁻¹"},
      {"measurement": "Activity", "setting": "Bacillus anthracis [31]", "result": 30, "unit": "h⁻¹"},
      {"measurement": "Activity", "setting": "Bacillus anthracis [32]", "result": 1.01, "unit": "h⁻¹"},
      {"measurement": "Activity", "setting": "Bacillus anthracis [33]", "result": 10.1, "unit": "h⁻¹"},
      {"measurement": "Activity", "setting": "Bacillus anthracis [34]", "result": 1.2, "unit": "h⁻¹"},
      {"measurement": "Activity", "setting": "Bacillus anthracis [35]", "result": 6.65, "unit": "h⁻¹"},
      {"measurement": "CFU/ml", "setting": "Bacillus anthracis [36]", "result": 1890000},
      {"measurement": "Activity", "setting": "Bacillus anthracis [37]", "result": 5.3, "unit": "h⁻¹"}
    ]}
  ]
}
